Target: NSP14 (Severe acute respiratory syndrome coronavirus 2, UniProt P0DTD1)
Experiment: NSP14 MTase inhibition assay at 37° C. (MTase-Glo SAH detection)
Format: biochemical, SARS-CoV-2
Conditions: 37° C., 0.3 nM NSP14, 2.5 μM SAM, 2.5 μM GpppA RNA; read-out: Nsp14 Mtase Inh. IC50

Compound	IC50
Cc1c(S(=O)(=O)c2ccc3[nH]ncc3c2)cc(C(=O)NCc2cccc3c2ccc(=O)n3C)n1C [B.33]	0.35 nM
Cc1c(S(=O)(=O)c2ccc3[nH]ncc3c2)cc(C(=O)NCc2cccc3nnn(C)c23)n1C [B.34]	0.2 nM
Cc1c(S(=O)(=O)c2ccc3[nH]ncc3c2)cc(C(=O)NCc2cccc3c(F)nn(C4CC4)c23)n1C [B.35]	3.3 nM
Cc1c(S(=O)(=O)c2ccc3[nH]ncc3c2)cc(C(=O)NCc2ccc(F)c3cnn(C)c23)n1C [B.36]	0.41 nM
Cc1c(S(=O)(=O)c2cnc3[nH]ncc3c2)cc(C(=O)NCc2cccc3cnn(C4CC4)c23)n1C [B.37]	10 nM
Cc1c(S(=O)(=O)c2ccc3[nH]nc(F)c3c2)cc(C(=O)NCc2cncnc2N2CCC(F)(F)C2)n1C [B.38]	0.56 nM
Cc1c(S(=O)(=O)c2ccc3[nH]nc(F)c3c2)cc(C(=O)NCc2ccccc2N2CCC(F)(F)C2)n1C [B.39]	5.2 nM
Cc1c(S(=O)(=O)c2ccc3[nH]ncc3c2)cc(C(=O)NCc2cncnc2N2CCC(F)(F)C2)n1C [B.40]	0.22 nM
Cc1c(S(=O)(=O)c2cc(C3CC3)c3[nH]ncc3c2)cc(C(=O)NCc2cccc3cnn(C4CC4)c23)n1C [B.41]	50 nM
Cc1c(S(=O)(=O)c2cc3cn[nH]c3cn2)cc(C(=O)NCc2cccc3cnn(C4CC4)c23)n1C [B.42]	9.3 nM
Cc1c(S(=O)(=O)c2ccc3[nH]ncc3c2)cc(C(=O)NCc2c(F)ccc3nnn(C)c23)n1C [B.43]	< 0.15 nM
Cc1c(S(=O)(=O)c2ccc3[nH]ncc3c2)cc(C(=O)NCc2cccc3c(F)nn(C)c23)n1C [B.44]	0.24 nM
Cc1c(S(=O)(=O)c2cc(CO)c3[nH]ncc3c2)cc(C(=O)NCc2cccc3cnn(C4CC4)c23)n1C [B.45]	4 nM
Cc1c(S(=O)(=O)c2ccc3[nH]nc(F)c3c2)cc(C(=O)NCc2c(F)ccc3cnn(C4CC4)c23)n1C [B.46]	0.53 nM
Cc1c(S(=O)(=O)c2ccc3c(cnn3C)c2)cc(C(=O)NCc2cccnc2N2CCC(C(=O)O)C2)n1C (stereo not shown) [B.47]	1.7 nM
Cc1c(S(=O)(=O)c2ccc3c(cnn3C)c2)cc(C(=O)NCc2c(F)ccnc2N2CCC(C(=O)O)C2)n1C (stereo not shown) [B.48]	0.15 nM
Cc1c(S(=O)(=O)c2ccc3[nH]ncc3c2)cc(C(=O)NCc2cncc3cnn(C)c23)n1C [B.49]	0.49 nM
Cc1c(S(=O)(=O)c2ccc3[nH]ncc3n2)cc(C(=O)NCc2cccc3cnn(C4CC4)c23)n1C [B.50]	51 nM
Cc1c(S(=O)(=O)c2cc(Cl)c3[nH]ncc3c2)cc(C(=O)NCc2cccc3cnn(C4CC4)c23)n1C [B.51]	0.22 nM
Cc1c(S(=O)(=O)c2ccc3[nH]ncc3c2)cc(C(=O)NCc2c(F)ccc3c2N(C)C(=O)C3)n1C [B.52]	0.15 nM
Cc1c(S(=O)(=O)c2ccc3[nH]ncc3c2)cc(C(=O)NCc2cccnc2C(F)(F)F)n1C [B.53]	7 nM
Cc1c(S(=O)(=O)c2ccc3[nH]ncc3c2)cc(C(=O)NC2CCc3cc(C#N)ccc32)n1C (stereo not shown) [B.54]	2.3 nM
Cc1c(S(=O)(=O)c2ccc3[nH]ncc3c2)cc(C(=O)NC2CCc3ncccc32)n1C (stereo not shown) [B.55]	5.6 nM
Cc1c(S(=O)(=O)c2ccc3[nH]ncc3c2)cc(C(=O)NCc2ccccc2S(C)(=O)=O)n1C [B.56]	2.9 nM
Cc1c(S(=O)(=O)c2ccc3[nH]ncc3c2)cc(C(=O)NCc2c(F)ccc3c2CCCO3)n1C [B.57]	< 0.15 nM
Cc1c(S(=O)(=O)c2cc(F)c3[nH]ncc3c2)cc(C(=O)NCc2ncccc2F)n1C [B.58]	2.3 nM
Cc1c(S(=O)(=O)c2cc(F)c3[nH]ncc3c2)cc(C(=O)NCc2cccc(CN3CCCC3)c2)n1C [B.59]	41 nM
Cc1c(S(=O)(=O)c2cc(C(F)F)c3[nH]ncc3c2)cc(C(=O)NCc2cccc3cnn(C4CC4)c23)n1C [B.60]	5.3 nM

Compound	IC50
Cc1c(S(=O)(=O)c2ccc3c(cnn3C)c2)cc(C(=O)NCc2c(F)ccc3cnn(C4CC4)c23)n1CCCC#N [B.61]	2.6 nM
Cc1c(S(=O)(=O)c2ccc3c(cnn3C)c2)cc(C(=O)NCc2c(F)ccc3cnn(C4CC4)c23)n1CCCC(=O)O [B.62]	< 0.15 nM
Cc1c(S(=O)(=O)c2cc(F)c3[nH]ncc3c2)cc(C(=O)NCc2c(F)ccc3cnn(C4CC4)c23)n1C [B.63]	< 0.15 nM
Cc1c(S(=O)(=O)c2ccc3[nH]ncc3c2)cc(C(=O)NCc2cccc3nnn(C4CC4)c23)n1C [B.66]	< 0.15 nM
Cc1c(S(=O)(=O)c2ccc3[nH]ncc3c2)cc(C(=O)NCc2ccccc2)n1C [B.67]	2.6 nM
Cc1c(S(=O)(=O)c2ccc3[nH]ncc3c2)cc(C(=O)NCc2c(F)cc(CN(C)C)cc2F)n1C [B.68]	4.1 nM
Cc1c(S(=O)(=O)c2ccc3[nH]ncc3c2)cc(C(=O)NCc2c(F)cc(F)c3cnn(C)c23)n1C [B.69]	< 0.15 nM
Cc1c(S(=O)(=O)c2ccc3[nH]ncc3c2)cc(C(=O)NCc2ccc(N(C)C)nn2)n1C [B.73]	116 nM
Cc1c(S(=O)(=O)c2ccc3[nH]ncc3c2)cc(C(=O)NCc2c(F)ccc3c2N(C)C(=O)C3(F)F)n1C [B.74]	0.5 nM
Cc1c(S(=O)(=O)c2ccc3[nH]ncc3c2)cc(C(=O)NNc2c(F)cccc2F)n1C [B.75]	9.6 nM
Cc1c(S(=O)(=O)c2ccc3[nH]ncc3c2)cc(C(=O)NCc2ccccc2F)n1C [B.76]	1.6 nM
Cc1c(S(=O)(=O)c2ccc3[nH]ncc3c2)cc(C(=O)NCc2cccc(OCC(F)(F)F)c2)n1C [B.77]	2.9 nM
Cc1c(S(=O)(=O)c2ccc3[nH]ncc3c2)cc(C(=O)NCc2c(F)cccc2OCCN(C)C)n1C [B.78]	2 nM
Cc1c(S(=O)(=O)c2cc(Cl)c3[nH]ncc3c2)cc(C(=O)NCc2c(F)ccc3cnn(C4CC4)c23)n1C [B.79]	0.17 nM
Cc1c(S(=O)(=O)c2ccc3[nH]nc(F)c3c2)cc(C(=O)NCc2cccc3c(F)nn(C4CC4)c23)n1C [B.80]	1.5 nM
Cc1c(S(=O)(=O)c2ccc3[nH]ncc3c2)cc(C(=O)NCc2c(F)ccc3nnn(C4CC4)c23)n1C [B.81]	< 0.15 nM
Cc1c(S(=O)(=O)c2ccc3[nH]nc(F)c3c2)cc(C(=O)NCc2c(F)ccc3nnn(C4CC4)c23)n1C [B.82]	< 0.15 nM
Cc1c(S(=O)(=O)c2ccc3[nH]ncc3c2)cc(C(=O)NCc2ncccc2C(F)(F)F)n1C [B.83]	5.3 nM
Cc1c(S(=O)(=O)c2ccc3[nH]ncc3c2)cc(C(=O)NCc2c(Cl)cccc2Cl)n1C [B.84]	0.18 nM
Cc1c(S(=O)(=O)c2ccc3[nH]ncc3c2)cc(C(=O)NCc2c(F)cccc2Cl)n1C [B.85]	0.2 nM
Cc1c(S(=O)(=O)c2ccc3[nH]ncc3c2)cc(C(=O)NCc2c(F)cc(F)cc2F)n1C [B.86]	0.41 nM
Cc1c(S(=O)(=O)c2cc(F)c3[nH]ncc3c2)cc(C(=O)NCc2c(F)ccc3cnn(C4CC4)c23)n1CCO [B.89]	0.1 nM
O=C(NCc1c(F)ccc2ncn(C3CC3)c12)c1cc(S(=O)(=O)c2cc(F)c3[nH]ncc3c2)c2n1CCC2 [B.90]	0.21 nM
O=C(NCc1c(F)ccc2ncn(C3CC3)c12)c1cc(S(=O)(=O)c2ccc3[nH]nc(F)c3c2)c2n1CCC2 [B.91]	0.28 nM
COCc1cc(S(=O)(=O)c2cc(C(=O)NCc3cccc4cnn(C5CC5)c34)n(C)c2C)cc2cn[nH]c12 [B.93]	68 nM
Cc1c(S(=O)(=O)c2cc(F)c3[nH]ncc3c2)cc(C(=O)NCc2c(F)ccc3nnn(C4CC4)c23)n1C [B.94]	< 0.15 nM
Cc1c(S(=O)(=O)c2ccc3[nH]nc(F)c3c2)cc(C(=O)NCc2c[nH]c(=O)c3ccccc23)n1C [B.95]	2.2 nM

Source: patent US20260226034A1 (The Rockefeller University, priority 2023, published 2026)
